# Tested on: frozen embryos of the inbred mouse B6J strain (blastocyst stage)
# Assay: Surviving embryos after re-freezing and thawing of blastocysts (Treatment Example 9)
# Assay type: cell-based
# Protocol: Then, in the early embryos of the inbred mouse B6J strain, an example of using frozen embryos preserved at the blastocyst stage, using the normal medium or the temporary treatment medium according to the present embodiment before and after the manipulation, and comparing whether the occurrence changes is described. In this treatment example, as the temporary treatment medium, a Y-27632-added mWM medium so as to be 10 μM was used (in this example, it is referred to as “Y+ medium”). In addition, as the normal medium, an mWM medium to which Y-27632 was not added was used (In this example, it is referred to as “Y− medium”). As a treatment, the prepared frozen embryos were thawed and developed as they were in Y− medium until the blastocyst stage. Then, half of the embryos that had developed up to the blastocyst were transferred to Y+ medium and placed for 30 minutes. After that, the embryos were transferred to Y− medium again and placed for 30 minutes. Then, the embryos treated with Y+ medium and the embryos not treated were frozen in one tube, respectively. Both tubes of embryos were then thawed and placed in the normal medium for 10 minutes. Then, the embryos were evenly divided into Y+ medium and Y− medium, respectively, and placed for 1 hour. Then, again, each tube of embryos was returned to Y− medium in each tube and the embryos were observed. […]
# [1] = Y+ before freezing and Y+ after thawing, 26 embryos
# [2] = Y+ before freezing, Y− after thawing, 26 embryos
# [3] = Y− before freezing, Y+ after thawing, 20 embryos
structure (smiles),measurement,setting,value
"C[C@@H](N)[C@H]1CC[C@H](C(=O)Nc2ccncc2)CC1 [Y-27632, trans-4-[(1R)-1-Aminoethyl]-N-4-pyrid inylcyclohexanecarboxamide]","NUMBER OF OUTGROWTH, 24 hours after thawing",[1],(11)
same,surviving embryos 3 HOURS AND A HALF AFTER THAWING,[1],12
same,surviving embryos 24 HOURS AFTER THAWING,[1],24
same,surviving embryos IMMEDIENTLY AFTER THAWING,[1],7
same,RECOVERY RATE,"Y+ before freezing and Y+ after thawing, 26 embryos, frozen twice, listed as Y+",92%
same,RECOVERY RATE,"Y+ before freezing and Y+ after thawing, 26 embryos, frozen twice, listed as Y+ medium",up to 92%
same,"NUMBER OF OUTGROWTH, 24 hours after thawing",[2],(7)
same,RECOVERY RATE,[2],70%
same,surviving embryos 3 HOURS AND A HALF AFTER THAWING,[2],11
same,surviving embryos 24 HOURS AFTER THAWING,[2],14
same,surviving embryos IMMEDIENTLY AFTER THAWING,[2],6
same,"NUMBER OF OUTGROWTH, 24 hours after thawing",[3],(3)
same,RECOVERY RATE,[3],55%
same,surviving embryos 3 HOURS AND A HALF AFTER THAWING,[3],5
same,surviving embryos 24 HOURS AFTER THAWING,[3],11
same,surviving embryos IMMEDIENTLY AFTER THAWING,"Y− before freezing, Y+ after thawing, 20 embryos, Y-27632 10 μM",3

# Reference: patent US20230220331A1, “TEMPORARY TREATMENT MEDIUM, TREATMENT KIT, EMBRYOGENESIS ARREST INHIBITOR, EMBRYOGENESIS ARREST INHIBITORY METHOD, DEVELOPMENTAL ENGINEERING PRODUCT PREPARATION METHOD, TRANSPLANTATION METHOD, THERAPEUTIC METHOD, AND DEVELOPMENTAL ENGINEERING PRODUCT” (priority 2020, published 2023)
